# Assay results published in patent US20250375414A1, “UROLITHIN COMBINATIONS” (Amazentis SA, priority 2024, published 2025).
# Key:
# [1] = system: Interleukin-6 (IL-6) secretion in human dermal fibroblasts (nHDF); test: IL-6 in supernatant of cytokine mix-treated normal human dermal fibroblasts (nHDF) (ELISA); type: cell-based
# Description: A dose of 0.025 ng/ml of Cytokines mix was applied to induce inflammation, measured by quantifying the levels of the pro-inflammatory cytokine interleukin 6 (IL-6) in the cell culture supernatant. For the experiment, cells were first pre-treated with either i) urolithin A 2.5 uM, ii) Zinc at 100 uM, iii) a combination of urolithin A 2.5 uM and Zinc 100 uM, iv) or DMSO as control for 24 h. Then cells were co-treated with both CTX and either urolithin A or Zinc alone or in combination, as above. After 24 h, IL-6 was measured in the cell supernatant to assess the ability of Urolithin A and Zinc to reduce Cytokines-induced inflammation.
# Normal Human dermal fibroblasts (nHDF) purchased from Promocell (ref. C-12302) were seeded at 6000 cells per well in a 96 well plate (Greiner) using a DMEM Glutamax 1 g D-glucose (Gibco, ref 21885108) supplemented with FBS 10% (PanBiotech, ref P30-3033), 1% PenStrep (Biowest) and 1% Hepes (Biowest). All media were sterilized with a 0.45 μm filter unit (VWR). The day after the seeded cells were treated for 24 h with 1) Urolithin A (UA) resuspended in DMSO, Zinc gluconate (MedChemExpress Ref. HY-W145499) or a combination of the two at the indicated doses.Cytokine mix (“cytomix”) was added in addition of the previous treatment for another 24 h, cytokines were used equally for a total and final concentration of 0.025 ng/ml (mIFN-g (roche ref.11276905001), TNF-α (Peprotech ref. 300-01A) and IL-b (Proteintech ref. 200-011B)). The medium was collected and an ELISA for Interleukin-6 were performed following the instruction provided by the supplier (Proteintech ref. KE10007). Finally, the absorbance at a wavelength of 450 nm was measured using a microplate plate reader (Fluostar Optima, BMG Labtech). IL-6 data were finally normalized over cell number, calculated with a cell viability assay (Promega, ref. G7571).
# [2] = system: Interleukin-6 (IL-6) secretion in C2C12 myotubes; test: IL-6 release from cytomix (CTX)-inflamed C2C12 myotubes (ELISA of culture media); type: cell-based, mouse; conditions: for Impact on the release of IL-6 (significance): FIG. 3
# Description: We first studied what is the lowest non-functional dose of Urolithin A in the context of cytokine-mediated muscle cell inflammation. For this, we exposed C2C12 myotubes to increasing doses of Urolithin A within a range of 1.56 uM to […] for 24 hours, and then induced inflammation for an additional 24 hours by applying to cells a mix of pro-inflammatory cytokines (Cytomix, abbreviated CTX). One set of cells were left untreated, indicated by the first bar (CTX−, UA−). One set of cells were treated with CTX but not Urolithin A (second bar, CTX+, UA−). At the end of the study, we measure the concentration of the proinflammatory biomarker Interleukin 6 (IL-6) released in the cell culture media.
# Based on the literature we used concentrations of ERGO at two low doses—potentially non-functional—i.e. 4 uM and 20 uM. […] As for the UA experiment in FIG. 1, we treated C2C12 with ERGO at these […] doses for 24 hours, followed by treatment with CTX for additional 24 hours.
# For this combination experiment, C2C12 were treated without CTX, with CTX alone and with CTX plus either UA alone (6.25 uM), ERGO alone (both 20 uM and 100 uM) and UA plus ERGO 20 uM and UA+ERGO 100 uM.
# C2C12 Myoblasts purchased from the American Type Culture Collection (ATCC; ref. CRL-1772) were seeded at 8000 cells per well in a 96 well plate (Greiner) using a DMEM Glutamax 4.5 g D-glucose (Gibco, ref 31966021) supplemented with FBS 10% (PanBiotech, ref P190902), 1% PenStrep (Biowest, Nuaill6, France) and 1% Hepes (Biowest). Cells were then differentiated for 6 days using a differentiation medium (DMEM Glutamax 4.5 g D-glucose (Gibco, ref 31966021), 2% Horse serum (Thermofisher, ref 160501229) 1% PenStrep and 1% Hepes). All our media were sterilized with a 0.45 μm filter unit (VWR). After 4 days of the differentiation cells were treated for 24 h with 1) Urolithin A (UA), Ergothieoneine (ERGO, MedChem Express HY-N1914) or a combination of the two at the indicated doses. Cytokine mix (“cytomix”) was added at day 5 in addition of the previous treatment for another 24 h, cytokines were respectively used at 5 ng (mIFN-γ (Roche ref.11276905001), TNF-α (Peprotech ref. 300-01A) and IL-β (Proteintech ref. 200-011B)). The medium was collected and an ELISA for Interleukin-6 were performed following the instruction provided by the supplier (Proteintech ref. KE10007). Finally, the absorbance at a wavelength of 450 nm was measured using a microplate plate reader (Fluostar Optima, BMG Labtech).
# [3] = system: IL-6 levels in 3T3-L1 cells; conditions: 3T3-L1 cells after stimulation with TNFα; cited from earlier work
# [4] = system: IL-6 levels in stressed C2C12 cells; conditions: cited from earlier work
compound,measurement,setting,value
Zinc gluconate,% reduction IL-6,"[1]; CTX vs. CTX + Zinc 100 uM, nHDF",−29.6%
same,Relative Change (%) Compared to CTX,"[1]; Zinc 100 uM, CTX 0.025 ng/ml, IL-6 in nHDF supernatant",−29.57%
same,Reduction of CTX-mediated increase of IL-6,"[1]; Zinc 100 uM, nHDF",29.6%
"O=c1oc2cc(O)ccc2c2ccc(O)cc12 [UA, Urolithin A]",First dose at which UA did not exert a significant reduction in IL-6 (sub-functional dose),"[2]; C2C12 myotubes, CTX, FIG. 1",6.25 µM
same,Effect on IL-6 release of CTX inflamed cells,"[2]; UA 1.56 uM to 50 mM, 24 h, then CTX 24 h, FIG. 1",dose dependent decrease
same,Percent change in IL-6 vs CTX alone,"[2]; UA 6.25 uM, 24 h, then cytomix (CTX) further 24 h, C2C12 myotubes",−5.2%
same,Impact on the release of IL-6 (significance),"[2]; UA alone 6.25 uM, CTX",did not significantly impact
same,% reduction IL-6,"[1]; CTX vs. CTX + UA 2.5 uM, nHDF",−25%
"C[N+](C)(C)[C@@H](Cc1c[nH]c(=S)[nH]1)C(=O)[O-] [ERGO, ergothioneine]",Percent change in IL-6 vs CTX alone,"[2]; ERGO 20 uM, 24 h, then CTX further 24 h, C2C12 myotubes",+1.2%
same,Percent change in IL-6 vs CTX alone,"[2]; ERGO 100 uM, 24 h, then CTX further 24 h, C2C12 myotubes",−28%
same,Impact on IL6 (significance),"[2]; ERGO 100 uM, CTX",significant reduction
same,Impact on the release of IL-6 (significance),"[2]; ERGO alone 20 uM, CTX",did not significantly impact
same,Only dose leading to a significant decrease in CTX-induced IL-6 secretion,"[2]; ERGO tested at 4 uM, 20 uM and 100 uM, FIG. 2",100 µM
same,Effect on IL-6 levels,[3],reduce IL-6 levels
same,Effect on IL-6 levels,[4],reduce IL-6 levels
